How the values were obtained:
human c-Kit = target: T1, human c-Kit (Homo sapiens, UniProt P10721); assay: c-Kit kinase assay (HTScan Receptor Kinase Assay Kit, DELFIA); format: biochemical; conditions: 200 μM ATP
T1 construct: human c-Kit (Thr544-Val976); purchased Cell Signaling Technologies; host or cells: baculovirus expression system
Protocol: (f) An In Vitro Assay which Determines the Ability of a Test Compound to Inhibit c-Kit Kinase.
The ability of compounds to inhibit c-Kit tyrosine kinase activity was assayed using HTScan™ Receptor Kinase Assay Kits (Cell Signaling Technologies, Danvers, Mass.). c-Kit tyrosine kinase is obtained in partially purified form from GST-kinase fusion protein which is produced using a baculovirus expression system from a construct expressing human c-Kit (Thr544-Val976) with an amino-terminal GST tag. The protein was purified by one-step affinity chromatography using glutathione-agarose. An anti-phosphotyrosine monoclonal antibody, P-Tyr-100, is used to detect phosphorylation of biotinylated substrate peptide KDR (Tyr996). Enzymatic activity was tested in 60 mM HEPES, 5 mM MgCl2 5 mM MnCl2 200 μM ATP, 1.25 mM DTT, 3 μM Na3VO4, 1.5 mM peptide, and 50 ng c-Kit. Bound antibody was detected using the DELFIA system (PerkinElmer, Wellesley, Mass.) consisting of DELFIA® Europium-labeled Anti-mouse IgG (PerkinElmer, #AD0124), DELFIA® Enhancement Solution (PerkinElmer, #1244-105), and a DELFIA® Streptavidin coated, 96-well Plate (PerkinElmer, AAAND-0005). Fluorescence was measured on a WALLAC Victor 2 plate reader and reported as relative fluorescence units (RFU). Data were plotted using GraphPad Prism (v4.0a) and IC50's were calculated using a sigmoidal dose response curve fitting algorithm.
Test compounds were dissolved in dimethylsulphoxide (DMSO) to give a 20 mM working stock concentration. Each assay was set up as follows: 100 μl of 10 mM ATP is added to 1.25 ml 6 mM substrate peptide. The mixture was diluted with dH20 to 2.5 ml to make 2×ATP/substrate cocktail ([ATP]=[…], [substrate]=3 mM). The enzyme was immediately transferred from −80° C. to ice. The enzyme was allowed to thaw on ice. The mixture was microcentrifuged briefly at 4° C. to bring liquid to the bottom of the vial and returned immediately to ice. 10 μl of DTT (1.25 mM) was added to 2.5 ml of 4× HTScan™ Tyrosine Kinase Buffer (240 mM HEPES pH 7.5, 20 mM MgCl2, 20 mM MnCl, 12 mM NaVO3) to make DTT/Kinase buffer. 1.25 ml of DTT/Kinase buffer was transferred to enzyme tube to make a 4× reaction cocktail ([enzyme]=4 ng/μL in 4× reaction cocktail). 12.5 μl of the 4× reaction cocktail was incubated with 12.5 μl/well of prediluted compound of interest (usually around 10 μM) for 5 minutes at room temperature. 25 μl of 2×ATP/substrate cocktail is added to 25 μl/well preincubated reaction cocktail/compound. The reaction plate was incubated at room temperature for 30 minutes. 50 μl/well Stop Buffer (50 mM EDTA, pH 8) was added to stop the reaction. […] 615 nm fluorescence emission is detected using an appropriate Time-Resolved Plate Reader.

human PDGFR-beta = target: T2, human PDGFR-beta (Homo sapiens, UniProt P09619); assay: PDGFR-beta radioisotope kinase assay; format: biochemical; conditions: 100 μM ATP; for IC50: read-out: PDGFRb IC50
T2 construct: fragment (amino acids 558-1106) amino-terminally fused to 6-histidine; 6xHis (N); made in house
T2 sequence (P09619 558-1106): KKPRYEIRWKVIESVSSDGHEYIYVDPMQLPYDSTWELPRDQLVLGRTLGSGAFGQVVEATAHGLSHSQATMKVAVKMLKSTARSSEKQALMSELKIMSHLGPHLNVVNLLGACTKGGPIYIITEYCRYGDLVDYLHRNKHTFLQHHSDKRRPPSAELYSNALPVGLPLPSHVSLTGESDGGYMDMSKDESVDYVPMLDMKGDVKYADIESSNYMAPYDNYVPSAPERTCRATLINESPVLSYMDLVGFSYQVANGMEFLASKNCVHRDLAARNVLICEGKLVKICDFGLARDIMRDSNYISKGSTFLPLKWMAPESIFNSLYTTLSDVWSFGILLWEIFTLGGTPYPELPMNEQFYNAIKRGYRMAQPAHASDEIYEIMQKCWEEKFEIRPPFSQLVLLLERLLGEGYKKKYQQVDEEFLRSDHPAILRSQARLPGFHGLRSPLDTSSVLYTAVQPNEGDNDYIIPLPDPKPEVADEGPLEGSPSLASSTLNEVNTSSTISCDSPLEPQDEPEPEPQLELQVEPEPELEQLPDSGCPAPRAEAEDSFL
Protocol: (a) An In Vitro Assay which-Determines the Ability of a Test Compound to Inhibit a Receptor Tyrosine Kinase.
The ability of compounds to inhibit receptor kinase (VEGFR2 and PDGFR-beta) activity was assayed using standard radioisotope assay for kinase. […] The proteins were purified using Ni2+/NTA agarose affinity column to purity
For PDGFR-beta assay, p33 ATP tracers were incubated with purified recombinant PDGFR-beta kinase to monitor the enzyme activity. In this assay, reactions were carried out in the presence of 0.4 mg/ml PDGFR-beta kinase and 200 nM of Abl peptide substrate ([…]). The reaction was carried out at 30° C. for 120 minutes in a final assay condition contained 20 mM Tris-HCl, pH 7.5, 100 mM NaCl, 0.05 mM EDTA, 0.05% NP-40, 1 mM DTT 50% glycerol and 100 μM ATP. An equal volume of 25% TCA was added to stop the reaction and precipitate the labeled peptides. Precipitated proteins were trapped onto glass fiber B filterplates and excess unlabeled p33 ATP was washed off. The plates were allowed to air-dry prior to the addition of 30 uL/well of Packard Microscint 20. The amount of incorporated isotope was measured using a Perkin Elmer TopCount plate reader. Different concentrations of compounds were added to reaction to assess the activity of compounds to inhibit PDGF-beta kinase. IC50 was calculated using Prism software with sigmoidal dose-response curve fitting.

T1 sequence (P10721 544-976): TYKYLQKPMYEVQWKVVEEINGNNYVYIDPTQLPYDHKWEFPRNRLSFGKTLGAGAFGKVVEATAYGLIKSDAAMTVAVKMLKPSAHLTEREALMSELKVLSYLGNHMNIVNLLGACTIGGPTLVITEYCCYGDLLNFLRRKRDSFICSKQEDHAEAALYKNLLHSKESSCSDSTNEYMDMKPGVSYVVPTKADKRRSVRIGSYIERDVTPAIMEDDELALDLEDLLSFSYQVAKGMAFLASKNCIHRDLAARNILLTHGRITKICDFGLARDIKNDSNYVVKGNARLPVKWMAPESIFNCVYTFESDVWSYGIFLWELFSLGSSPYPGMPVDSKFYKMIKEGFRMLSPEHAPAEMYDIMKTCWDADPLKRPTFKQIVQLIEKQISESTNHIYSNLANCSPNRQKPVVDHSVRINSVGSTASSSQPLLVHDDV

IC50 (human c-Kit) [nM] | PDGFRb IC50 (human PDGFR-beta) | IC50 (human PDGFR-beta) [nM] | SMILES
< 100 | Inactive |  | COc1cc2c(Oc3ccc4[nH]c(C)cc4c3F)ncnc2cc1OCCCCCCC(=O)NO [Compound 11, 7-(4-(4-fluoro-2-methyl-1H-indol-5-yloxy)-6-methoxyquinazolin-7-yloxy)-N-hydroxyheptanamide]
100 to 1000 |  | 1000 to 10000 | COc1cc2c(Nc3ccc4[nH]c(C)cc4c3F)ncnc2cc1OCCCCCC(=O)NO [Compound 13, 6-(4-(4-fluoro-2-methyl-1H-indol-5-ylamino)-6-methoxyquinazolin-7-yloxy)-N-hydroxyhexanamide]
100 to 1000 |  | > 10000 | COc1cc2c(Nc3ccc4[nH]c(C)cc4c3F)ncnc2cc1OCCCCCCC(=O)NO [Compound 14, 7-(4-(4-fluoro-2-methyl-1H-indol-5-ylamino)-6-methoxy-quinazolin-7-yloxy)-N-hydroxyheptanamide]
100 to 1000 |  | > 10000 | Cc1cc2c(F)c(Nc3ncnc4cc(OCCCN5CCCC5)c(OCCCCCCC(=O)NO)cc34)ccc2[nH]1 [Compound 20, 7-(4-(4-Fluoro-2-methyl-1H-indol-5-ylamino)-7-(3-(pyrrolidin-1-yl)propoxy)quinazolin-6-yloxy)-N-hydroxyheptanamide]

Source: US20090076044A1, “VEGFR INHIBITORS CONTAINING A ZINC BINDING MOIETY” (priority 2007, published 2009)
